According to article PMC9486541, “Design, synthesis and cytotoxic evaluation of novel betulonic acid-diazine derivatives as potential antitumor agents” (Frontiers in Chemistry, 2022):

Legend:
[1] = test system: MCF-7 cells; experiment: Wound healing assay; assay type: cell-based, human; settings: 8 μM, 0, 24, 48 h, compared to control group
Experimental: MCF-7 cells were seeded in six-well plates at a density of […] and incubated at 37°C to achieve 100 percent confluence. After starving the cells for 24 h, a wound (cell-free) was drawn across the center of the well using the tip of a 1 ml plastic pipette. Wells were cleaned twice with PBS before being treated for 48 h with BoA2C (8 μM). At 0 h, 24 h, and 48 h, cells were viewed and photographed in randomly selected fields using an inverted light microscope (Nikon).

[2] = test system: MCF-7 cells; experiment: Cellular metabolomics study (LC-MS); assay type: cell-based, human; settings: MCF-7, BoA2C (2 μM) 72 h, BoA2C and Control groups
Experimental: To eliminate excess medium, cells were washed twice with 1 ml of PBS solution. The wells were then filled with 2 ml of ACN: MeOH: H2O 50:30:20 (v/v) and placed in the freezer for 20 min. The extracts obtained in an Eppendorf tube after the cells were scraped and vortexed. The mixture was then centrifuged for 10 min at 10,000 rpm and 4°C, and the supernatant was collected and dried with an evaporator. 300 μl MeOH was used for reconstitution. 15 μL of the reconstituted extract was mixed with 15 μl H2O and […] ACN for the metabolomics analysis of the intracellular material. After centrifugation (10 min, 4°C, 11,800 g), the supernatant was transferred to an LC-MS vial for analysis.
An Acquity UPLC HSS T3 column (1.8 μm 100 × 2.1 mm) using an UltiMate 3000 high performance LC system coupled to Q Exactive MS was used for metabolic profiling ([Shu et al., 2020]). At a flow rate of 0.3 ml/min, mobile phase A (water containing 0.1% acid) and mobile phase B (methanol) were used. A was reduced from 80 % to 70% from 0 to 2 min, A was reduced to 55% from 2 to 5 min, A was reduced to 40% from 5 to 6.5 min, A was reduced to 35% from 6.5 to 12 min, A was last reduced to 0 from 12 to 18 min. The gradient of the mobile phase was as follows: The column oven temperature was set to 40°C, and the autosampler temperature was set to 4°C. The injection volume was 1 μl. MS used electron spray ionization to operate in both positive and negative ionization modes (ESI). To assess the stability and repeatability of the LC-MS-based metabolomics method, quality control (QC) samples were used. Each QC sample was made by combining five samples of the same volume (100 μL) in the order of analysis. To ensure the system method’s stable operation, all combined QC samples for running all QC samples made by every five samples before analysis. After five samples were tested during the analysis run, the combined QC samples of the five samples were taken.
Mass spectrometry data of metabolites in MCF-7 cells was used for metabolomics investigation after co-cultivation with BoA2C (2 μM) for 72 h. The effectiveness of the OPLS-DA model to distinguish between the BoA2C and Control groups was assessed using the success criterion of R^2 ≥ 0.7 and Q^2 ≥ 0.4 ([Martin-Blazquez et al., 2019]). […] VIP-plots were investigated using the OPLS-DA models to examine important factors that led to the differentiation of the metabolome between the BoA2C and Control groups. Variables having a VIP value greater than 1 were deemed significant contenders. Matching retention time and MS fragmentation patterns from the MetaboAnalyst (version 5.0) database verified the presence of distinct metabolites ([Pang et al., 2021]). These metabolites were further categorized based on their characteristics, including amino acids, amines, aliphatic acids and bile acids. All differential metabolites were loaded into MetaboAnalyst (version 5.0) for metabolic analysis to further explain the fundamental mechanisms of BoA2C’s cytotoxic impact on breast carcinoma cells. In accordance with the described guidelines, the Homo sapiens pathway library and Fisher’s exact test were used for route enrichment analysis, while relative-betweeness centrality was used for pathway topology analysis ([Pang et al., 2021]). The impacted metabolic pathways were defined as those with a pathway effect value more than 0.10 and a p value less than 0.05. […] Six of them (Figure 7B, Table 3) were primarily involved: 1) arginine and proline metabolism 2) linoleate metabolism 3) bile acid biosynthesis 4) de novo fatty acid biosynthesis 5) fatty acid activation, and (VI) fatty Acid Metabolism.

[3] = Arginine and Proline Metabolism
[4] = De novo fatty acid biosynthesis

C=C(C)[C@@H]1CC[C@]2(C(=O)OCCOC(=O)c3cnc(C)cn3)CC[C@]3(C)[C@H](CC[C@@H]4[C@@]5(C)CCC(=O)C(C)(C)[C@@H]5CC[C@]43C)[C@@H]12 [BoA2C, (5-Methylpyrazin-2-acyloxy)-ethyl-3-oxolup-20(29)-en-28-oate]
migration of cells in the scratch wound [1]: obviously reduced the migration of MCF-7 cells
fold change of 4-Acetamidobutanoic acid (M4) [2, 3]: 2.37
fold change of 5′-Methylthioadenosine (M10) [2, 3]: 28.55
fold change of L-4-Hydroxyglutamate semialdehyde (M6) [2, 3]: 1.99
fold change of L-Arginine (M14) [2, 3]: 1.90
fold change of L-Glutamic acid (M18) [2, 3]: 1.94
fold change of L-Glutamine (M7) [2, 3]: 2.33
fold change of L-Methionine (M12) [2, 3]: 3.63
fold change of L-Proline (M5) [2, 3]: 2.40
fold change of 3,7-Dihydroxycoprostanic Acid (M21) ([2]; Bile acid biosynthesis): 1027.39
fold change of 3a,7a-Dihydroxy-5b-cholestan-26-al (M13) ([2]; Bile acid biosynthesis): 241.46
fold change of 3 alpha,7 alpha,26-Trihydroxy-5beta-cholestane (M3) ([2]; Bile acid biosynthesis): 362.98
fold change of 7a,12a-Dihydroxy-cholestene-3-one (M16) ([2]; Bile acid biosynthesis): 17.04
fold change of 7a-Hydroxy-5b-cholestan-3-one (M25) ([2]; Bile acid biosynthesis): 9.40
fold change of 7a-Hydroxy-cholestene-3-one (M28) ([2]; Bile acid biosynthesis): 4.47
fold change of 7alpha-Hydroxycholesterol (M17) ([2]; Bile acid biosynthesis): 92.35
fold change of 27-Deoxy-5b-cyprinol (M24) ([2]; Bile acid biosynthesis): 2.03
fold change of Cholesterol (M1) ([2]; Bile acid biosynthesis): 7.69
fold change of Cholic acid (M2) ([2]; Bile acid biosynthesis): 2.55
fold change of Lithocholic acid (M27) ([2]; Bile acid biosynthesis): 108.49
fold change of Palmitic acid (M11) [2, 4]: 23.17
fold change of alpha-Linolenic acid (M26) [2, 4]: 2.19
fold change of 2-trans-dodecenoyl-CoA (M22) ([2]; Fatty Acid Metabolism): 1.93
fold change of 3-Oxotetradecanoyl-CoA (M15) ([2]; Fatty Acid Metabolism): 1.77
fold change of 13-HODE (M23) ([2]; Linoleate metabolism): 108.54
fold change of 13-Hpode (M9) ([2]; Linoleate metabolism): 23.04
fold change of Ascorbic Acid (M19) ([2]; Linoleate metabolism): 2.88
fold change of Linoleic acid (M20) ([2]; Linoleate metabolism): 159.58
fold change of LysoPC(P-18:0/0:0) (M8) ([2]; Linoleate metabolism): 3.29
